Among the data in the METLIN SMRT retention time set (Domingo-Almenara et al. 2019) are RP-LC retention time values, retold here.

The data set in a line: gradient 5% acetonitrile 3 min, to 50% in 2 min, to 85% in 15 min, held 3 min, 100 µL/min. Conditions: column: Zorbax Extend-C18 2.1 x 50 mm; eluents: water / acetonitrile, 0.1% formic acid. A digest of the protocol: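 Pure standards were run in mixtures of ~100 molecules by HPLC coupled to a quadrupole time-of-flight mass spectrometer. The column was a Zorbax Extend-C18 (2.1 × 50 mm, 1.8 μm) at 100 μL/min, with water and acetonitrile each containing 0.1% formic acid, in positive and negative ionization mode. Dead and dwell volumes were 40 μL and 900 μL. Retention time was taken from computationally picked adduct peaks, each manually inspected, with data collected over 3 months.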
Regarding `Cc1ccc(C(=O)Nc2nc(-c3ccccc3)cs2)cc1[N+](=O)[O-]`, the RP-LC retention time was determined as 1090 s. `O=C1C2N=NN(Cc3nc(-c4cccc(Cl)c4)no3)C2C(=O)N1c1ccc2c(c1)CCC2` (stereo not given) gave an RP-LC retention time of 1130 s.

As to `Cc1cc(=O)n(CC(=O)Nc2ccc(C)c(C)c2)c(N2CCCC2)n1`, the RP-LC retention time worked out at 668 s.

For the compound `CN(C)c1nccnc1OC1CCN(C(=O)c2ccc(Cl)cc2)C1` (stereo not given), the RP-LC retention time was 783 s. The compound `CC1(CNC(=O)NCc2cccc(F)c2)CCOCC1` returned an RP-LC retention time of 684 s. Take `Cc1c(CNCCCN2CCCC2=O)c(C(=O)O)c(C)n1Cc1cccc(Cl)c1`: the RP-LC retention time came out at 665 s. Consider `CCC(C)NC(=O)N1c2cccnc2N(C(C)C)C(=O)C1C` (stereo not given), for which the RP-LC retention time was 850 s. The figure for `Cc1cccc(-c2ocnc2C(=O)NC2CCN(C)CC2)c1` is 618 s; for `CC1(c2noc(C3CCOCC3)n2)CCN(Cc2c(F)cccc2Cl)CC1` it is 612 s. Compound `CC1(C)C(=O)N(CC(=O)N2CCN(c3ccc(F)cc3)CC2)c2ccccc21` showed an RP-LC retention time of 911 s. `Cc1ccc(C)c(NS(=O)(=O)c2ccc3c(c2)C(=O)N(C)c2ncccc2O3)c1`: the RP-LC retention time came out at 970 s. Regarding `CCCCN(C(=O)C1CC1)C1CCS(=O)(=O)C1` (stereo not given), the RP-LC retention time was determined as 665 s. For `Cn1c(=O)c(N2CCCC(C(=O)NCCCN3CCCCCC3)C2)nc2cccnc21` (stereo not given) the value was 581 s; for `Cc1oc(-c2cccc(Cl)c2)nc1Cn1nnc(-c2nc(-c3ccccc3)no2)c1C`, 1320 s.

In the case of `CCN1C(=O)COc2ccc(-c3noc(COc4ccc(Cl)cc4)n3)cc21`, the RP-LC retention time came to 1110 s. In turn, `OC[C@@H]1CN(Cc2ccco2)C[C@H]1c1nc(-c2ccncc2)no1` came in with an RP-LC retention time of 547 s. The figure for `CCCNC(=O)C1CCCN(c2ccc(SCC(=O)Nc3ccc(Br)cc3)nn2)C1` (stereo not given) is 710 s; for `CN1c2ccc(F)cc2C(=O)NC12CCN(C(=O)c1ccc(F)c(F)c1)CC2` it is 776 s.

For `O=C(c1ccsc1)N1CCN(c2[nH]ncc2-c2ccccc2)CC1`, the RP-LC retention time was found to be 774 s. In the case of `Cc1nc(CCNC(=O)[C@H]2CCCN2C(=O)c2ccc(F)cc2)cs1`, the RP-LC retention time stood at 627 s. As to `CCCC(C)C(=O)NC1CCN(C2=NS(=O)(=O)C(c3ccc(CC)cc3)=C2C)CC1` (stereo not given), the RP-LC retention time was determined as 927 s. On to `CC(C)CN(CC(C)C)C(=O)CCCN1C(=O)c2ccccc2C1=O`, for which the RP-LC retention time worked out at 947 s. Consider `CC(C)c1cc(-c2ccc(F)c3ccccc23)nc(N)n1`, for which the RP-LC retention time turned out to be 882 s. `CCOc1ccc(-c2nc(-c3ccc4c(c3)oc(=O)n4C)no2)cc1`: the RP-LC retention time turned out to be 1130 s.

With `CCOc1ccc(CN2C[C@@H](COC)[C@H](c3ccncc3)C2)cc1OC`, the RP-LC retention time amounted to 560 s. On to `O=C(Nc1ccc(F)cc1)C(=O)c1cn(CC(=O)N2CCCC2)c2ccccc12`, for which the RP-LC retention time amounted to 954 s. `c1cn(-c2cc(NC3CCCC3)ncn2)cn1` showed an RP-LC retention time of 613 s. Consider `O=C(NCc1ccc2c(c1)OCO2)c1c(O)c2cccnc2n(-c2ccc(F)cc2)c1=O`, for which the RP-LC retention time was 1120 s. Take `CCCCOc1ccc(CNC(=O)CCc2ccc3nc(CC)[nH]c3c2)cc1`: the RP-LC retention time amounted to 683 s. The figure for `CCOc1ccccc1CNC(=O)CCc1nnc2c3cc(-c4ccc(F)cc4)nn3ccn12` is 830 s; for `CN(Cc1ccco1)C(=O)Cn1cccc1-c1nnc(-c2ccccc2)o1` it is 919 s. The compound `CN1C(=O)c2cccn2CC1C(=O)N1CCCCC1` (stereo not given) had an RP-LC retention time of 614 s. Regarding `COCCO[C@H]1C(=O)N(C2CCN(S(=O)(=O)c3cccnc3)CC2)[C@H]1c1ccncc1`, the RP-LC retention time is 583 s. In turn, `O=S(=O)(NC1CCN(Cc2ccccc2)CC1)c1cc(-c2cc(C(F)(F)F)on2)cs1` came in with an RP-LC retention time of 776 s.

In turn, `O=C(Nc1c(-c2ccccc2)nc2ccccn12)c1cccc([N+](=O)[O-])c1` showed an RP-LC retention time of 596 s. For `Cc1cc(C)cc(NC(=O)NCCn2nnc3cc(C(=O)N4CCCC4)ccc32)c1` the value was 702 s; for `COCCCNC(=O)C1c2cc(OC)c(OC)cc2C(=O)N(C)C1c1cccs1` (stereo not given), 676 s; for `CC(C)NC(=O)C1CC(=O)N(CCc2c[nH]c3ccc(F)cc23)C1` (stereo not given), 691 s.

With `Cn1c(N2CCCN(C(=O)COc3ccc(Cl)cc3)CC2)cc(=O)n(C)c1=O`, the RP-LC retention time worked out at 658 s.

The compound `CCc1ccc(NC(=O)Cn2nc3n(c2=O)CCCCC3)cc1` registered an RP-LC retention time of 709 s. As for `O=C(NC1CC1)[C@@H]1C[C@H](Oc2cccnc2)CN1C(=O)c1ccoc1`, the RP-LC retention time was 546 s. For `Cc1ccc(S(=O)(=O)NCC(=O)Nc2ccc3c(c2)Cc2ccccc2-3)cc1` the value was 975 s; for `O=C(CN1CCN(Cc2ccc(F)cc2)C1=O)NCCc1ccccn1`, 552 s. In the case of `CSc1ccc(-c2nc3nc(C)cc(C)n3c2Nc2ccc(C)cc2)cc1`, the RP-LC retention time was 810 s. For `Cc1ccc(-c2coc(-c3cccc(NS(=O)(=O)c4ccc(Cl)s4)c3)n2)cc1` the value was 1310 s; for `CCCn1ncc(N2CCC(C(=O)N3CCN(C(C)=O)CC3)CC2)cc1=O`, 591 s; for `Cc1ccccc1OCc1nc(CCN(C)C(=O)c2ccc(Br)o2)no1`, 951 s. `Cc1ccc(C(=O)N2CCCC(COc3ccc(C(=O)NC4CC4)cc3)C2)c(C)c1` (stereo not given) had an RP-LC retention time of 856 s.

For `O=C(CCNc1c(-c2cccc(F)c2)nc2cnccn12)NCc1ccc(F)cc1`, the RP-LC retention time worked out at 755 s. Turning to `Cn1nc2n(c1=O)CCN(C(=O)C1(c3ccccc3)CCCC1)CC2`, the RP-LC retention time was 736 s. For `CCOc1ccc(NC(=O)CSc2nccc(N3CCN(c4cccc(OC)c4)CC3)n2)cc1`, the RP-LC retention time was 765 s.

`CCCCn1c(=O)c2ccccc2n(Cc2nc(-c3ccc(C)c(C)c3)no2)c1=O`: the RP-LC retention time was 1290 s. The figure for `CC1(C(=O)NCc2ccccc2Cl)Cn2cnc(C(=O)NC3CCCCC3)c2C(=O)N1C1CC1` (stereo not given) is 840 s; for `CCOc1ccc(-c2noc(Cn3c(=O)n(CC4CCCO4)c(=O)c4ccccc43)n2)cc1` (stereo not given) it is 1050 s. As for `CCCc1nc(-c2c(C)cc(C)nc2NC(=O)c2cc(C)cc(C)c2)no1`, the RP-LC retention time was found to be 784 s. With `CN1CCCc2cc(C(CNC(=O)C(=O)NCc3ccccc3)N3CCCCC3)ccc21` (stereo not given), the RP-LC retention time came out at 746 s. The compound `COc1ccc(-c2nc(CN(c3ccccc3)S(=O)(=O)c3cccs3)c(C)o2)cc1` had an RP-LC retention time of 1130 s. For `Cc1ccc2c(Nc3cccc(Cl)c3)c(-c3nc(C)no3)cnc2n1` the value was 808 s; for `CCN1CCN(c2ccc(NC(=O)c3ccc(F)cc3Cl)cn2)C1=O`, 742 s; for `CC(NC(=O)C(=O)NCc1nc(-c2ccccc2)no1)c1ccccc1` (stereo not given), 856 s. Consider `COc1ccc(-c2noc(C3CC(=O)N(c4ccc(C)cc4)C3)n2)cc1OC` (stereo not given), for which the RP-LC retention time was 885 s. The compound `CC(=O)N1c2ccc(S(=O)(=O)N3CCCCC3)cc2CC1C(=O)NCCN(C)C` (stereo not given) displayed an RP-LC retention time of 601 s. `Cc1ccc(CNC(=O)C2(C)CCCN(S(=O)(=O)c3ccccc3)C2)cc1` (stereo not given) displayed an RP-LC retention time of 960 s. Consider `COc1cccc(-c2csc(CN3CCNCC3)n2)c1`, for which the RP-LC retention time turned out to be 566 s. For `CNC(=O)C1CN(C(=O)c2ccc(OC)cc2)CC12CCCC2` (stereo not given) the value was 570 s; for `COc1ccc(OC)c(NC(=O)C2CCCN(S(=O)(=O)c3cc(-c4noc(C)n4)cs3)C2)c1` (stereo not given), 966 s. In turn, `Cc1ccc(-c2ccc(-n3nc(C)c(S(=O)(=O)NCC(C)C)c3C)nn2)cc1` displayed an RP-LC retention time of 1160 s. Regarding `O=C(Nc1ccc(Br)cc1F)N1CCN(Cc2ccc3nccnc3c2)CC1`, the RP-LC retention time worked out at 627 s. Compound `COc1ccc(C(=O)N2CCCn3nc(-c4ccc(Cl)cc4)cc3C2)cn1` displayed an RP-LC retention time of 881 s. `COc1ccc(C(O)CN2CCN(c3ccccc3F)CC2)cc1` (stereo not given) returned an RP-LC retention time of 660 s. `O=c1ccc(-c2ccc3c(c2)OCO3)nn1CCc1nc(-c2ccccn2)no1` came in with an RP-LC retention time of 730 s. As for `CNC(=O)CCNc1c(-c2cccc(F)c2)nc2cnccn12`, the RP-LC retention time was 606 s. As for `O=C(Cc1cccs1)N1CCN(S(=O)(=O)C2CC2)CC1`, the RP-LC retention time was 666 s.

As for `CCc1cccc(C)c1NC(=O)Cn1nc2c3cccc(C)c3ncn2c1=O`, the RP-LC retention time stood at 615 s. For `COc1ccc(NC(=O)N2CCN(c3nc4ccccc4nc3C(F)(F)F)CC2)cc1`, the RP-LC retention time amounted to 993 s. On to `FC(F)(F)c1ccccc1-n1ccnc1`, for which the RP-LC retention time is 633 s. Consider `Cc1cc(=O)n(CC(=O)Nc2ccc(Br)cc2)c(N2CCCCC2)n1`, for which the RP-LC retention time worked out at 716 s. `COCCC1(NC(=O)C2CCOCC2)CCN(C(=O)C2CC=CC2)CC1` gave an RP-LC retention time of 632 s.

Regarding `CC(C)n1c(=O)sc2cc(S(=O)(=O)N3CCC(C(=O)NCc4ccccn4)CC3)ccc21`, the RP-LC retention time turned out to be 660 s. As for `O=C(Nc1cccc(Br)c1)C(=O)c1c[nH]c2ccccc12`, the RP-LC retention time was 1060 s.
